Data as given in patent publication US9163013B2, “Use of 1H-indazole-3-carboxamide compounds as glycogen synthase kinase 3 beta inhibitors” (AZIENDE CHIMICHE RIUNITE ANGELINI FRANCESCO A.C.R.A.F. …, priority 2012, dated 2015).
Where a name gives a salt, the structure may show the parent alone.

Experiments:
Experiment in all cases: Kinase selectivity panel
Type in all cases: biochemical
[1] = biological target: FGFR1 kinase (h) (Homo sapiens (Human), UniProt P11362); conditions: duplicate, read-out: % inhibition of control values, FGFR1 kinase (h)
FGFR1 kinase (h), sequence (P11362 22-822): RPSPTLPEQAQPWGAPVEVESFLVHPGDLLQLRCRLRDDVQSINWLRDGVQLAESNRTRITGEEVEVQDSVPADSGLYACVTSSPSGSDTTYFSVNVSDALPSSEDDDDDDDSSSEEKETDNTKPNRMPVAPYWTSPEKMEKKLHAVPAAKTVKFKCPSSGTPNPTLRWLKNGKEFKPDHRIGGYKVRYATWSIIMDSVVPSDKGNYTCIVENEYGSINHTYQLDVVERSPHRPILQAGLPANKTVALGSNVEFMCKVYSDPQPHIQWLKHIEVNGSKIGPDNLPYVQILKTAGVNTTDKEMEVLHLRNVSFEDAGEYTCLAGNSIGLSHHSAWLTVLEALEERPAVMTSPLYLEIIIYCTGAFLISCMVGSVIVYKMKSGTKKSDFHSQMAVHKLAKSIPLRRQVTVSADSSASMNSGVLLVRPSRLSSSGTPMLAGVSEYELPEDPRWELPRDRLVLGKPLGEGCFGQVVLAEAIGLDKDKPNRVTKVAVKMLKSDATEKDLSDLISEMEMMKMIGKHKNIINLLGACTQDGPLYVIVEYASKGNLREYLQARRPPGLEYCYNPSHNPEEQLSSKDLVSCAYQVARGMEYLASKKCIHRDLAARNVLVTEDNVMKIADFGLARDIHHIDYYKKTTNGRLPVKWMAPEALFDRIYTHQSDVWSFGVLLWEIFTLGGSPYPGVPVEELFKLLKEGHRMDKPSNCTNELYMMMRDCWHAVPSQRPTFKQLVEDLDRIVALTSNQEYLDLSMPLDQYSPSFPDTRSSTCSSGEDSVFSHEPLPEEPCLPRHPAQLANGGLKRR
Procedure: (§1) (a) Compound 1 was tested against a panel of 60 kinases in order to assess its selectivity. The assays were chosen taking into consideration the diversity of assay families.
(§2) Human recombinant kinases were incubated in the presence of specific peptide substrates plus ATP for different times (10, 15, 30, 60 or 90 minutes) at 22° C. Phosphorylated substrate was detected by LANCE or HTRF technology (CISBIO, MA, USA).
(§3) Compound 1 was tested at 10 μM in duplicate.
(§4) The results are expressed as a percent of inhibition of control specific activity obtained in the presence of the test compound 1 and are reported in the following Table 5.
(§5) (b) Compounds 7, 12, 21 and 24 were tested against the same panel of 60 kinases under the same conditions described above for compound 1.
(§6) The results are expressed as a percent of inhibition of control specific activity obtained in the presence of the test compounds and are reported in the following Table 6.

[2] = biological target: p38delta kinase (h) (Homo sapiens (Human), UniProt O15264); conditions: duplicate, read-out: % inhibition of control values, p38delta kinase (h)
Procedure: as §1, §2, §3, §4, §5, §6

[3] = biological target: IKKepsilon (h) (IKBKE) (Homo sapiens (Human), UniProt Q14164); conditions: duplicate, read-out: % inhibition of control values, IKKepsilon (h) (IKBKE)
Procedure: as §1, §2, §3, §4, §5, §6

[4] = biological target: ERK1 (h) (Homo sapiens (Human), UniProt P27361); conditions: duplicate, read-out: % inhibition of control values, ERK1 (h)
ERK1 (h), sequence (P27361 whole entry): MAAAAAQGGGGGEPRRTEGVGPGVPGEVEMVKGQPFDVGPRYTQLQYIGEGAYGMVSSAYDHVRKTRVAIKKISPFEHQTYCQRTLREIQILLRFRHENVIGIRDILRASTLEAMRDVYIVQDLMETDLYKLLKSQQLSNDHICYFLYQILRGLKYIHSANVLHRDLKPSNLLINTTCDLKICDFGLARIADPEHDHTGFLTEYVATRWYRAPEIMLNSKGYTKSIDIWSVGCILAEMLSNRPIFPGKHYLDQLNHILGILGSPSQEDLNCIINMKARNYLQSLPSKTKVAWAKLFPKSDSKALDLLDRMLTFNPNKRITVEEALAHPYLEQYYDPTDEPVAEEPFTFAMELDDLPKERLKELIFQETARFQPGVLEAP
Procedure: as §1, §2, §3, §4, §5, §6

[5] = biological target: p38alpha kinase (h) (Homo sapiens (Human), UniProt Q16539); conditions: duplicate, read-out: % inhibition of control values, p38alpha kinase (h)
Procedure: as §1, §2, §3, §4, §5, §6

[6] = biological target: DLK1 (h) (MAP3K12) (Homo sapiens (Human), UniProt Q12852); conditions: duplicate, read-out: % inhibition of control values, DLK1 (h) (MAP3K12)
Procedure: as §1, §2, §3, §4, §5, §6

[7] = biological target: CK1alpha (h) (Homo sapiens (Human), UniProt P48729); conditions: duplicate, read-out: % inhibition of control values, CK1alpha (h)
Procedure: as §1, §2, §3, §4, §5, §6

[8] = biological target: AurB/Aur1 kinase (h) (Homo sapiens (Human), UniProt Q96GD4); conditions: duplicate, read-out: % inhibition of control values, AurB/Aur1 kinase (h)
Procedure: as §1, §2, §3, §4, §5, §6

[9] = biological target: IRK (h) (InsR) (Homo sapiens (Human), UniProt P06213); conditions: duplicate, read-out: % inhibition of control values, IRK (h) (InsR)
Procedure: as §1, §2, §3, §4, §5, §6

[10] = biological target: PDK1 (h) (Homo sapiens (Human), UniProt O15530); conditions: duplicate, read-out: % inhibition of control values, PDK1 (h)
Procedure: as §1, §2, §3, §4, §5, §6

[11] = biological target: PKCgamma (h) (Homo sapiens (Human), UniProt P05129); conditions: duplicate, read-out: % inhibition of control values, PKCgamma (h)
Procedure: as §1, §2, §3, §4, §5, §6

[12] = biological target: MAPKAPK2 (h) (Homo sapiens (Human), UniProt P49137); conditions: duplicate, read-out: % inhibition of control values, MAPKAPK2 (h)
Procedure: as §1, §2, §3, §4, §5, §6

[13] = biological target: EphB2 kinase (h) (Homo sapiens (Human), UniProt P29323); conditions: duplicate, read-out: % inhibition of control values, EphB2 kinase (h)
Procedure: as §1, §2, §3, §4, §5, §6

[14] = biological target: MYT1 kinase (h) (Homo sapiens (Human), UniProt Q99640); conditions: duplicate, read-out: % inhibition of control values, MYT1 kinase (h)
MYT1 kinase (h), sequence (Q99640 whole entry): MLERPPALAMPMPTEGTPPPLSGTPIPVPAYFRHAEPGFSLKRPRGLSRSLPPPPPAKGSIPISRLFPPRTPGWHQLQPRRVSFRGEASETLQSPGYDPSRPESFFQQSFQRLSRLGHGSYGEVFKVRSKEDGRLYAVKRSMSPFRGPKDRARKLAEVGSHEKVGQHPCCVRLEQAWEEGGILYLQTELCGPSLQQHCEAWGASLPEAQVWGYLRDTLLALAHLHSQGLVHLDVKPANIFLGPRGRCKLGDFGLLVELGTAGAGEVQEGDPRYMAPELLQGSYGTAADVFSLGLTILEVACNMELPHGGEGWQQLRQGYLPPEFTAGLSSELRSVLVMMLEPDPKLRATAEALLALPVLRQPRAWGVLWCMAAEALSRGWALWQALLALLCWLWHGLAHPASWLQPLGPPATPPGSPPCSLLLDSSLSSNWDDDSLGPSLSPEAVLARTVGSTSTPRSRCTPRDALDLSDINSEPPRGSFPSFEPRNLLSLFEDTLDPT
Procedure: as §1, §2, §3, §4, §5, §6

[15] = biological target: IGF1R kinase (h) (Homo sapiens (Human), UniProt P08069); conditions: duplicate, read-out: % inhibition of control values, IGF1R kinase (h)
IGF1R kinase (h), sequence (P08069 31-1367): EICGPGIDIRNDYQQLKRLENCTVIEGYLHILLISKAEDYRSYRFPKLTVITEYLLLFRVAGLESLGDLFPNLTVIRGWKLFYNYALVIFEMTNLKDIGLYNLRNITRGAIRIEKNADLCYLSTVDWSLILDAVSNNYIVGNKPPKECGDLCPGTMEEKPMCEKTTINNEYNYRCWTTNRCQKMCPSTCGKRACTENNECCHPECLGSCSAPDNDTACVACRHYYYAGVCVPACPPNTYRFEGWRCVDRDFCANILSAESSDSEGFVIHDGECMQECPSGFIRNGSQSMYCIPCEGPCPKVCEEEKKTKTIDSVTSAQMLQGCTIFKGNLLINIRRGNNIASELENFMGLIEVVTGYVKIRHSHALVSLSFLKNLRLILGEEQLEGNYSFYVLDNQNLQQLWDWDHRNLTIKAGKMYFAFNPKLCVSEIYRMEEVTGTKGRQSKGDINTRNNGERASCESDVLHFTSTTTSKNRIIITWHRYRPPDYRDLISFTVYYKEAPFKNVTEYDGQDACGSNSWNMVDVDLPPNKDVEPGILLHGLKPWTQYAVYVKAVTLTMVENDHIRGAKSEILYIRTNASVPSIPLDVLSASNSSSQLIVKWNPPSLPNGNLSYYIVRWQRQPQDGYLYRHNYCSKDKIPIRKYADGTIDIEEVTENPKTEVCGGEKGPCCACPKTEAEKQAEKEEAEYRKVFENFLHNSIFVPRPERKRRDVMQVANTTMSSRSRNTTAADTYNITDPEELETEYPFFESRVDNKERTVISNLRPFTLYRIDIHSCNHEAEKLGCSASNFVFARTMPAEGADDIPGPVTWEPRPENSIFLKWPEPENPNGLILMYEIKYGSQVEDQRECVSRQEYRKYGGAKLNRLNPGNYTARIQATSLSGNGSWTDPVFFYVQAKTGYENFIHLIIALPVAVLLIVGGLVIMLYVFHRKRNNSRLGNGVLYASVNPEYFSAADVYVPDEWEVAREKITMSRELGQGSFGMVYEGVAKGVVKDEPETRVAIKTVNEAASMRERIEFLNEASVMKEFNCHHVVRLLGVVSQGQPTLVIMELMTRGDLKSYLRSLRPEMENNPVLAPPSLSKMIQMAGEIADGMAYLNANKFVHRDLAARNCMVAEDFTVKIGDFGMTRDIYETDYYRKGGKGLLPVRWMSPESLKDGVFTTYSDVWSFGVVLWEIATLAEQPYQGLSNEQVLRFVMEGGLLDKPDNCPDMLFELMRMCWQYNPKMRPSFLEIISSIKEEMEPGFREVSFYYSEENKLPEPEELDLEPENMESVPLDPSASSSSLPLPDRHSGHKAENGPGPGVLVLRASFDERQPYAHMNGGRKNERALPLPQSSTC
Procedure: as §1, §2, §3, §4, §5, §6

[16] = biological target: Akt1/PKBalpha (h) (Homo sapiens (Human), UniProt P31749); conditions: duplicate, read-out: % inhibition of control values, Akt1/PKBalpha (h)
Procedure: as §1, §2, §3, §4, §5, §6

[17] = biological target: DAPK1 (h) (Homo sapiens (Human), UniProt P53355); conditions: duplicate, read-out: % inhibition of control values, DAPK1 (h)
Procedure: as §1, §2, §3, §4, §5, §6

[18] = biological target: EphB4 kinase (h) (Homo sapiens (Human), UniProt P54760); conditions: duplicate, read-out: % inhibition of control values, EphB4 kinase (h)
EphB4 kinase (h), sequence (P54760 16-987): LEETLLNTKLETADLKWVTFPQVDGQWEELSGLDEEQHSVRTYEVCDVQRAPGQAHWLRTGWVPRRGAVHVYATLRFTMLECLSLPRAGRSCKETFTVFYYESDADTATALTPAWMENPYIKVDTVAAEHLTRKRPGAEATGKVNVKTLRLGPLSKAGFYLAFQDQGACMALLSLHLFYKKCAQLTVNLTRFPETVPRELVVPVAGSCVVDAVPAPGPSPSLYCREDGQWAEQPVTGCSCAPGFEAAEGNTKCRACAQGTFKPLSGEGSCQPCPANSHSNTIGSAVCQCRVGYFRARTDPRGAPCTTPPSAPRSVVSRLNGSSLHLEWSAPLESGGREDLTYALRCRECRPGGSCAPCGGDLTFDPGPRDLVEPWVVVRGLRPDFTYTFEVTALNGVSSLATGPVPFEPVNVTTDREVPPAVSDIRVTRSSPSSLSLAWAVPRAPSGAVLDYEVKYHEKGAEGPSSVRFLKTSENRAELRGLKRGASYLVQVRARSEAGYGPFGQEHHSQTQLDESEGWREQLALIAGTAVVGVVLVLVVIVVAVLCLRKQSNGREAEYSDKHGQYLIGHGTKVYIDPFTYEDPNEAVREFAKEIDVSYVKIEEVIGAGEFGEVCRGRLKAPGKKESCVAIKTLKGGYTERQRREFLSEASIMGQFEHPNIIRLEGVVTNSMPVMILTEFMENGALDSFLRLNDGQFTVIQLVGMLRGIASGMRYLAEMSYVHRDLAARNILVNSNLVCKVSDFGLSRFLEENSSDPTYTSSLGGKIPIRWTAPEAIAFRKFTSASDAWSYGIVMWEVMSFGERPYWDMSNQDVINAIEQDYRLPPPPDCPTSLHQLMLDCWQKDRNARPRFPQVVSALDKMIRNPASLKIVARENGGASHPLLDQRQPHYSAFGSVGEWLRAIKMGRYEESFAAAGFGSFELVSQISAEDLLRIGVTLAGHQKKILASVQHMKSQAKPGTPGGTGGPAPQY
Procedure: as §1, §2, §3, §4, §5, §6

[19] = biological target: GRK3/BARK2 (h) (ADRBK2) (Homo sapiens (Human), UniProt P35626); conditions: duplicate, read-out: % inhibition of control values, GRK3/BARK2 (h) (ADRBK2)
Procedure: as §1, §2, §3, §4, §5, §6

[20] = biological target: EphA4 kinase (h) (Homo sapiens (Human), UniProt P54764); conditions: duplicate, read-out: % inhibition of control values, EphA4 kinase (h)
Procedure: as §1, §2, §3, §4, §5, §6

[21] = biological target: IKKalpha (h) (Homo sapiens (Human), UniProt O15111); conditions: duplicate, read-out: % inhibition of control values, IKKalpha (h)
Procedure: as §1, §2, §3, §4, §5, §6

[22] = biological target: PKCalpha (h) (Homo sapiens (Human), UniProt P17252); conditions: duplicate, read-out: % inhibition of control values, PKCalpha (h)
Procedure: as §1, §2, §3, §4, §5, §6

[23] = biological target: Ret kinase (h) (Homo sapiens (Human), UniProt P07949); conditions: duplicate, read-out: % inhibition of control values, Ret kinase (h)
Procedure: as §1, §2, §3, §4, §5, §6

[24] = biological target: PhKgamma 2 (h) (Homo sapiens (Human), UniProt P15735); conditions: duplicate, read-out: % inhibition of control values, PhKgamma 2 (h)
PhKgamma 2 (h), sequence (P15735 whole entry): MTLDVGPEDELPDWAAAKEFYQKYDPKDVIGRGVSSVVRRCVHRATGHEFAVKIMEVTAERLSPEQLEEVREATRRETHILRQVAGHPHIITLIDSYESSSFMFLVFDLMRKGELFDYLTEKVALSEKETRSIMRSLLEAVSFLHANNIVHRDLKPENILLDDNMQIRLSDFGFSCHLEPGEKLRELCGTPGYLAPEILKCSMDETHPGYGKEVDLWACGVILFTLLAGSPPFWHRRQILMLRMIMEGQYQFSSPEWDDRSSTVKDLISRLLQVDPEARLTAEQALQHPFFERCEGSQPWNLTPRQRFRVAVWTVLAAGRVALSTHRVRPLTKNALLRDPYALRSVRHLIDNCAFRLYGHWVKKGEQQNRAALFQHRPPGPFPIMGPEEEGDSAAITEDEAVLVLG
Procedure: as §1, §2, §3, §4, §5, §6

[25] = biological target: CDK5/p35 (h) (Homo sapiens (Human), UniProt Q00535); conditions: duplicate, read-out: % inhibition of control values, CDK5/p35 (h)
CDK5/p35 (h), sequence (Q00535 whole entry): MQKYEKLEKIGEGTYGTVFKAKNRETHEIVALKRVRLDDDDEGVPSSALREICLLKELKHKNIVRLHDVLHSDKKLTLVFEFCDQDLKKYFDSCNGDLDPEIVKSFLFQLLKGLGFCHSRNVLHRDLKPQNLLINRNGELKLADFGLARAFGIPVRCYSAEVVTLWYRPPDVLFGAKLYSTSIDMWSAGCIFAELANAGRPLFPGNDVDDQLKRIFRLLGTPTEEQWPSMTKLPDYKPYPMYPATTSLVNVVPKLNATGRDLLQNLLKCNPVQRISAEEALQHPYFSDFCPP
CDK5/p35 (h), sequence (Q15078 whole entry partner): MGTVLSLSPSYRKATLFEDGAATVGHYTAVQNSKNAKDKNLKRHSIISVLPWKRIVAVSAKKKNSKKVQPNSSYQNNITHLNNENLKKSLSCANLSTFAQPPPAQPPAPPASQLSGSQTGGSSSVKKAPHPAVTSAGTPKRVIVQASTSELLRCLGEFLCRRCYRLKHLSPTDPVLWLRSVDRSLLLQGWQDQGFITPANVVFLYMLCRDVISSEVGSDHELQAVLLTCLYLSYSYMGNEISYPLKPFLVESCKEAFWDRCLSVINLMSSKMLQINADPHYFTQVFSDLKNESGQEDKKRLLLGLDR
Procedure: as §1, §2, §3, §4, §5, §6

inhibition at 10 µM [1] [%] | inhibition at 10 µM [2] [%] | inhibition at 10 µM [3] [%] | inhibition at 10 µM [4] [%] | inhibition at 10 µM [5] [%] | inhibition at 10 µM [6] [%] | inhibition at 10 µM [7] [%] | inhibition at 10 µM [8] [%] | inhibition at 10 µM [9] [%] | inhibition at 10 µM [10] [%] | inhibition at 10 µM [11] [%] | inhibition at 10 µM [12] [%] | inhibition at 10 µM [13] [%] | inhibition at 10 µM [14] [%] | inhibition at 10 µM [15] [%] | inhibition at 10 µM [16] [%] | inhibition at 10 µM [17] [%] | inhibition at 10 µM [18] [%] | inhibition at 10 µM [19] [%] | inhibition at 10 µM [20] [%] | SMILES | further results
6 | 12 | 4 | 35 | 0 | 10 | 15 | 11 | 18 | 8 | 0 | 0 | 0 | 1 | 5 | 7 | 10 | 0 | 8 | 0 | COc1ccc2[nH]nc(C(=O)NCC3CCN(CCc4ccc(O)cc4)CC3)c2c1 [Compound 1, N-({1-[2-(4-hydroxyphenyl)ethyl]-piperidin-4-yl}methyl)-5-methoxy-1H-indazole-3-carboxamide] | inhibition at 10 µM [21]: 0%; inhibition at 10 µM [22]: 8%; inhibition at 10 µM [23]: 1%; inhibition at 10 µM [24]: 6%; inhibition at 10 µM [25]: 30%
13 | 35 | 21 | 81 | 1 | 46 | 2 | 10 | 0 | 0 | 0 | 0 | 2 | 0 | 0 | 0 | 5 | 3 | 4 | 2 | COc1ccncc1-c1ccc2[nH]nc(C(=O)NCC3CCN(Cc4ccc(C(=O)O)o4)CC3)c2c1 [Compound 21, 5-({4-[({[5-(4-Methoxypyridin-3-yl)-1H-indazol-3-yl]carbonyl}amino)methyl]piperidin-1-yl}methyl)furan-2-carboxylic acid formate] | inhibition at 10 µM [21]: 5%; inhibition at 10 µM [22]: 20%; inhibition at 10 µM [23]: 0%; inhibition at 10 µM [24]: 0%; inhibition at 10 µM [25]: 98%
0 | 4 | 0 | 22 | 0 | 0 | 0 | 0 | 3 | 0 | 0 | 0 | 0 | 0 | 0 | 0 | 15 | 0 | 0 | 0 | COc1ccc2[nH]nc(C(=O)NCC3CCN(Cc4ccc(C(=O)O)o4)CC3)c2c1 [Compound 24, 5-{[4-({[(5-Methoxy-1H-indazol-3-yl)carbonyl]amino}methyl)piperidin-1-yl]methyl}furan-2-carboxylic acid] | inhibition at 10 µM [21]: 2%; inhibition at 10 µM [22]: 0%; inhibition at 10 µM [23]: 0%; inhibition at 10 µM [24]: 0%; inhibition at 10 µM [25]: 16%
